US8309563B2, “Quinazoline derivatives useful as anti-tumor medicament” (Shanghai Allist Pharmaceuticals, Inc., priority 2006, dated 2012)
Where two headings read alike, the source gives them in different places.

Experiments:
[1] = tested on: A431 cells (human epidermoid squamous carcinoma cell); test: Anti-tumor experiment, improved MTT method, A431 cells, 72 h; format: cell-based
Procedure: The inventive compounds were formulated into 5 concentrations. […] The incubation was continued for another 6 h, and 100 μl SDS was added to end the reaction.
1. Cell Line: A431 Human Epidermoid Squamous Carcinoma Cell

[2] = tested on: BT-474: Human Breast Cancer Cell; test: Inhibition of cell proliferation, SRB method, BT-474 cells, 5 days; format: cell-based; conditions: 120 h, Logit method, read-out: BT474 IC50
Procedure: 2. Cell Line: BT-474: Human Breast Cancer Cell The cells were incubated with compounds of various concentrations (10-0.001 μm individually) for 5 days. The inhibition of cell proliferation was tested according to the SRB method, and the inhibitory rate was figure out. According to the inhibitory rate, the IC50 was calculated by the Logit method. The anti-tumor activities in vitro were compared.

[3] = biological target: T1, Erb-B2 (Homo sapiens, UniProt P04626); test: Inhibitory effect on the phosphorylation activity of Erb-B2 in BT474 cells (SDS-PAGE/blot, ECL); format: cell-based; conditions: BT474 cells treated […]; FIG. 1; comparison with Iressa
T1 construct: After treated with various compounds for 1.5 h, the cells were collected, cracked; endogenous in cells; host or cells: BT474 human breast cancer cells
Procedure: The inhibitory effect of compound 8 and compound 14 on the phosphorylation activity of Erb-B2: The concentration of the human breast cancer cells BT474 were adjusted to a suitable concentration, and inoculated into a plate. After treated with various compounds for 1.5 h, the cells were collected, cracked and the protein was adjusted to the same quantity. Following the protein-denaturation, SDS-PAGE was conducted, and transferred to nitric acid cellulose film; Hybriding with the anti-phosphorylation antibody (mono-anti), anti-β-tublin antibody (mono-anti) and anti-mouse-IgG antibody (bi-anti) respectively; Assayed by the ECL kit and the X-ray plate was exposed. According to the size and the density of the corresponding protein band, the inhibitory effect on Erb-B2 kinases can be evaluated.

[4] = tested on: human skin squamous cancer cell A431 grafted in a nude mouse; test: Anti-tumor effect on human skin squamous cancer cell A431 grafted in a nude mouse; format: in vivo
Procedure: A well-growth solid tumor of A431 was selected and incised into several pieces with the size of 2-3 mm; each was grafted into the right armpit of a mouse subcutaneously with a trocar respectively. 5 After 7days, the test compounds were administrated by gastric perfusion through the mouth for 13 days continuously. The long span (a) and the short span (b) of the tumor were measured with a vernier caliper every 4 days. According to the formula V=ab^2/2, the volume (mm^3) of the tumor could be calculated. The test animals were neck-off killed 23 days after the grafting. The test animals were anatomized to obtain the tumor. The tumors were weighed and the inhibitory rate was calculated.

[5] = A431 cells, * = two results from two experiments, read-out: A431 IC50
[6] = Homo sapiens, A-431, 72 h, A431 cells, 72 h, class symbols, read-out: IC50
[7] = Homo sapiens, A-431, A431 cells, * = two results from two experiments, read-out: A431 IC50

T1 sequence (P04626 23-1255): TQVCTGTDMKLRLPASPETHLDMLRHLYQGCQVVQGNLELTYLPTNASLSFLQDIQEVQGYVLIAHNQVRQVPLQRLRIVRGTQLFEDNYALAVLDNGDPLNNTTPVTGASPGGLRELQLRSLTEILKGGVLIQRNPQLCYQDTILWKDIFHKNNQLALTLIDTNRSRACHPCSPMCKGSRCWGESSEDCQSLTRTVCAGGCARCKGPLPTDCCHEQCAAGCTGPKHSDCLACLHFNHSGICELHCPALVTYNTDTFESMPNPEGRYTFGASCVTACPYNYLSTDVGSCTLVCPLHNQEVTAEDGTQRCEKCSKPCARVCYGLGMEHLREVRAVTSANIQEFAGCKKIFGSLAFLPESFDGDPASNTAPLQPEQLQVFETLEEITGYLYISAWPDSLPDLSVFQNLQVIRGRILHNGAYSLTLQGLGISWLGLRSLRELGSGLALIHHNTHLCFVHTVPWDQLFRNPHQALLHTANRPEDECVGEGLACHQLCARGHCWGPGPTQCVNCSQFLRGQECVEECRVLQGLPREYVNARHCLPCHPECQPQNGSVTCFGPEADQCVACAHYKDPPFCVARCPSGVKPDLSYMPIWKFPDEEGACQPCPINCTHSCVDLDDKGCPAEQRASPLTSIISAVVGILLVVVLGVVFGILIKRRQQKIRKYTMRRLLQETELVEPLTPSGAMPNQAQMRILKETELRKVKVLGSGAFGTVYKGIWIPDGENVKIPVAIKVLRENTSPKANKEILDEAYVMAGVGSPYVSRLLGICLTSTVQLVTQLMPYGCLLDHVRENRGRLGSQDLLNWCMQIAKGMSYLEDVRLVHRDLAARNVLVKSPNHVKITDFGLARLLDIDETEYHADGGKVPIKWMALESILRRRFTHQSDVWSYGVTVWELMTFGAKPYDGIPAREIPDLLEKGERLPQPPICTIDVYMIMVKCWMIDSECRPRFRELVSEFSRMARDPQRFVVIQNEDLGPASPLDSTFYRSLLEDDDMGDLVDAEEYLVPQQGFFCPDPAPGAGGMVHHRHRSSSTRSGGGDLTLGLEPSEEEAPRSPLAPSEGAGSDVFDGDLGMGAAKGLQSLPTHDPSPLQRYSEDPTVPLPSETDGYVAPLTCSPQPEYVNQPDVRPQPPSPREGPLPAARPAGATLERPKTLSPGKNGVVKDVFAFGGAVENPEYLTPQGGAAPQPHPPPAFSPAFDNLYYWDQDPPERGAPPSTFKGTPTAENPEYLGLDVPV

| Compound | IC50 [1, 6] [nM] | IC50 [1, 7] [nM] | IC50 [2] [nM] | also measured |
| --- | --- | --- | --- | --- |
| C=CC(=O)Nc1ccc2ncnc(Nc3ccc(OCc4cccc(F)c4)c(Cl)c3)c2c1 [Example 8, N-{4-[3-chloro-4-(3-fluorobenzyloxy)-phenylamino]-quinazolin6-yl}-acrylamide] | < 1000 | 180 | 1 | IC50 [1, 5]: 110 nM; inhibitory activity on phosphorylation of Erb-B2 compared with Iressa [3]: more superior inhibitory activity; inhibition % ([4]; 25 mg/kg ig × 13, by tumor weight): 29.99%; Weight of the tumor (g) x ± SD ([4]; 25 mg/kg ig × 13, day 23 after grafting): 0.79 ± 0.20 g; Weight of the test animals (g) (tumor-off) ([4]; 25 mg/kg ig × 13, nude mouse A431 graft): 21.58 ± 2.18 g; inhibition % ([4]; 50 mg/kg ig × 13, by tumor weight): 38.67%; Weight of the tumor (g) x ± SD ([4]; 50 mg/kg ig × 13, day 23 after grafting): 0.69 ± 0.17 g; Weight of the test animals (g) (tumor-off) ([4]; 50 mg/kg ig × 13, nude mouse A431 graft): 22.87 ± 3.96 g; inhibition % ([4]; 100 mg/kg ig × 13, by tumor weight): 43.63%; Weight of the tumor (g) x ± SD ([4]; 100 mg/kg ig × 13, day 23 after grafting): 0.64 ± 0.23 g; Weight of the test animals (g) (tumor-off) ([4]; 100 mg/kg ig × 13, nude mouse A431 graft): 22.13 ± 1.83 g |
| COc1cc2ncnc(Nc3ccc(OCc4cccc(F)c4)c(Cl)c3)c2cc1OC [Example 21, 4-[3-chloro-4-(3-fluorobenzyloxy)-phenylamino]-6,7-dimethoxy-quinazoline] | 1000 to 10000 | 2210 | 190 |  |
| COCCOCc1cccc(-c2ccc3ncnc(Nc4ccc(OCc5cccc(F)c5)c(Cl)c4)c3c2)c1 [Example 26, 4-[3-chloro-4-(3-fluorobenzyloxy)-phenylamino]-6-[3-(methoxyethoxymethylene)-phenyl]-quinazoline] | 1000 to 10000 | 4040 | 6630 |  |
| COc1cc2ncnc(Nc3ccc(OCc4cccc(F)c4)c(Cl)c3)c2cc1OCCCN1CCOCC1 [Example 30, 4-[3-chloro-4-(3-fluorobenzyloxy)-phenylamino]-6-(3-(4-morpholino)propoxy)-7-methoxy-quinazoline] | 1000 to 10000 | 9260 | 240 |  |
| CN(C)Cc1ccc(-c2ccc3ncnc(Nc4ccc(OCc5cccc(F)c5)c(Cl)c4)c3c2)o1 [Example 29, 4-[3-chloro-4-(3-flurobenzyloxy)-phenylamino]-6-(5-dimethylaminomethyl-furan-2-yl)-quinazoline] | 1000 to 10000 |  |  |  |
| Oc1ccc2ncnc(Nc3ccc(OCc4cccc(F)c4)c(Cl)c3)c2c1 [Example 18, 4-[3-chloro-4-(3-fluorobenzyloxy)-phenylamino]-6-hydroxy-quinazoline] | 10000 to 50000 |  |  |  |
| CC(=O)OCc1cccc(-c2ccc3ncnc(Nc4ccc(OCc5cccc(F)c5)c(Cl)c4)c3c2)c1 [Example 25, 4-[3-chloro-4-(3-fluorobenzyloxy)-phenylamino]-6-(3-acetoxymethyl-phenyl)-quinazoline] | < 1000 |  | 62 |  |
| CN(C)C/C=C/C(=O)Nc1cc2c(Nc3ccc(OCc4cccc(F)c4)c(Cl)c3)ncnc2cc1OCC(F)(F)F [Example 12] | < 1000 |  |  |  |
| CC(=O)Oc1ccc2ncnc(Nc3ccc(OCc4cccc(F)c4)c(Cl)c3)c2c1 [Example 17, O-{4-[-3-chloro-4-(3-fluorobenzyloxy)-phenylamino]-quinazolin-6-yl}-acetate] | < 1000 | 3480 | 43 |  |
| Fc1cccc(COc2ccc(Nc3ncnc4ccc(Br)cc34)cc2Cl)c1 [Example 22, 4-[3-chloro-4-(3-fluorobenzyloxy)-phenylamino]-6-bromo-quinazoline] | 10000 to 50000 |  |  |  |
| CS(=O)(=O)OCc1ccc(-c2ccc3ncnc(Nc4ccc(OCc5cccc(F)c5)c(Cl)c4)c3c2)o1 [Example 28, 4-[3-chloro-4-(3-fluorobenzyloxy)-phenylamino]-6-(5-methanesulfonyloxymethylene-furan-2-yl)-quinazoline] | 1000 to 10000 | 2030 | 49 |  |
| C=CC(=O)Nc1cc2c(Nc3ccc(OCc4cccc(F)c4)c(Cl)c3)ncnc2cc1Cl [Example 16, N-{4-[3-chloro-4-(3-fluorobenzyloxy)-phenylamino]-7-chloro-quinazolin-6-yl}-acrylamide] | 1000 to 10000 |  |  |  |
| COc1ccc(-c2ccc3ncnc(Nc4ccc(OCc5cccc(F)c5)c(Cl)c4)c3c2)cc1 [Example 23, 4-[3-chloro-4-(3-fluorobenzyloxy)-phenylamino]-6-(4-methoxy-phenyl)-quinazoline] | 10000 to 50000 | 24000 | 170 |  |
| OCc1cccc(-c2ccc3ncnc(Nc4ccc(OCc5cccc(F)c5)c(Cl)c4)c3c2)c1 [Example 24, 4-[3-chloro-4-(3-fluorobenzyloxy)-phenylamino]-6-(3-hydroxymethyl-phenyl)-quinazoline] | 1000 to 10000 | 3870 | 86 |  |
| OCc1ccc(-c2ccc3ncnc(Nc4ccc(OCc5cccc(F)c5)c(Cl)c4)c3c2)o1 [Example 27, 4-[3-chloro-4-(3-fluorobenzyloxy)-phenylamino]-6-(5-hydroxymethyl-furan-2-yl)-quinazoline] | 1000 to 10000 | 1530 | 23 | IC50 [1, 5]: 1030 nM |
| CN(C)C/C=C/C(=O)Nc1cc2c(Nc3ccc(OCc4cccc(F)c4)c(Cl)c3)ncnc2cc1Cl [Example 15, N-{4-[3-chloro-4-(3-fluorobenzyloxy)-phenylamino]-7-chloro-quinazolin-6-yl}-E,4-(dimethylamino)-but-2-enamide] | 1000 to 10000 |  |  |  |
| COc1cc2ncnc(Nc3ccc(OCc4cccc(F)c4)c(Cl)c3)c2cc1NC(=O)/C=C/CN(C)C [Example 13, N-{4-[3-chloro-4-(3-fluorobenzyloxy)-phenylamino]-7-methoxy-quinazolin-6-}-E-4-(dimethylamino)-but-2-enamide] | 1000 to 10000 |  |  |  |
| CN(C)C/C=C/C(=O)Nc1ccc2ncnc(Nc3ccc(OCc4cccc(F)c4)c(Cl)c3)c2c1 [Example 10, N-{4-[3-chloro-4-(3-fluorobenzyloxy)-phenylamino]-quinazolin-6-yl}-E,4-(dimethylamino)-but-2-enamide] | 10000 to 50000 |  |  |  |
| Cc1ccc(S(=O)(=O)Nc2ccc3ncnc(Nc4ccc(OCc5cccc(F)c5)c(Cl)c4)c3c2)cc1 [Example 9, N-{4-[-3-chloro-4-(3-fluorobenzyloxy)-phenylamino]-quinazolin-6-yl}-p-methylbenzenesulfonamide] | 1000 to 10000 | 1220 | 280 |  |
| COCCOc1ccc2ncnc(Nc3ccc(OCc4cccc(F)c4)c(Cl)c3)c2c1 [Example 19] | 1000 to 10000 | 3290 | 88 | IC50 [1, 5]: 1700 nM |
| Fc1cccc(COc2ccc(Nc3ncnc4ccc(OCCCN5CCOCC5)cc34)cc2Cl)c1 [Example 20, 4-[3-chloro-4-(3-fluorobenzyloxy)-phenylamino]-6-[3-(4-morpholino)-propoxy]-quinazoline] | < 1000 | 1690 | 79 |  |
| C=CC(=O)Nc1cc2c(Nc3ccc(OCc4cccc(F)c4)c(Cl)c3)ncnc2cc1OC [Example 14] | 1000 to 10000 | 1720 | 6.9 | inhibitory activity on phosphorylation of Erb-B2 compared with Iressa [3]: more superior inhibitory activity |
